Assay results taken from publication PMC9578445, “Association of respiratory failure with inhibition of NaV1.6 in the phrenic nerve” (Channels, 2022).

Key:
Nicotinic Acetylcholine = test: Panlabs selection; type: binding
Description: Supplement KCHL_A_2122309_SM6747.docx, table 1 | column: SSI-5; SSI-4; SSI-1

Human NaV1.7 = molecular target: T1, Human NaV1.7 (Homo sapiens, UniProt Q15858); test: PatchXpress automated patch clamp, hyperpolarized-state protocol; type: cell-based; settings: HEK 293 cells
T1 construct: expressed in transfected cells
Procedure: (§1) Sodium currents were recorded from recombinant Human Embryonic Kidney 293 cell lines stably overexpressing the respective sodium channel type (NaV1.2, 1.5, 1.4, 1.6, 1.7). Recording solutions were comprised of the following (in mM): Internal solution: 30 CsCl, 5 HEPES, 10 EGTA, 120 CsF, 5 NaF, 2 MgCl2, pH = 7.3 with CsOH; External solution 1: 40 NaCl, 120 NMDG, 1 KCl, 0.5 MgCl2, 5 HEPES, 2.7 CaCl2, pH to 7.3 with NaOH, used for NaV1.5 recordings; External solution 2: 150 NaCl, 5 KCl, 2 CaCl2, 1 MgCl2, 10 HEPES, 12 Dextrose, pH 7.3 with NaOH, used for NaV1.7, 1.6, 1.4, and 1.2 recordings.
(§2) Whole-cell currents were recorded from cells stably expressing NaV channels using the PatchXpress 7000A automated patch clamp platform (Molecular Devices, LLC; Sunnyvale, CA). A portable air-conditioning unit was installed on the PatchXpress instruments to maintain the temperature of the headstage at 21°C. Cells were voltage clamped at −60 mV for cell detection and sealing. At the start of each recording, a voltage curve and an inactivation curve was run for each cell to determine the voltage at which 50% of the channels reside in the inactivated state (V0.5 inact). The voltage curve was used to determine if the cell was adequately clamped; cells with currents larger than 10nA or with space clamp issues were not used further.
(§3) NaV1.7, NaV1.6, NaV1.4: Compound potency was measured in a hyperpolarized-state protocol where the holding potential for each cell was set to V0.5inact – 20 mV. A pulse train consisting of 7 consecutive double pulses, 8 second hypepolarizing prepulse to −120 mV followed by a test pulse to −10 mV was applied at a frequency of 0.1 Hz. First, vehicle (0.3% DMSO) was added to establish a baseline measurement. Once baseline was established, test compounds were added. Cells were exposed to compound for 5 minutes at 20 mV negative to V0.5inact then exposed to the same hyperpolarized voltage protocol. (no pulsing during compound incubation). A washout was performed to measure recovery of the sodium currents from inhibition.
(§4) Recordings were included for analysis when current amplitude reached steady-state in vehicle, compound inhibition was concentration-dependent and currents recovered during wash-out periods. Raw data from PatchXpress experiments were retrieved from the database and analyzed using the DataXpress 2 software (Molecular Devices).
(§5) At least 3 concentrations (3–9 replicates per concentration) were tested and at least one concentration had to cause 20–80% current inhibition.

Rat NaV1.6 = molecular target: T2, Rat NaV1.6 (Rattus norvegicus, UniProt O88420); test: as above; type: cell-based; settings: for IC50: HEK cells, hyperpolarized protocol
T2 construct: expressed in transfected cells; host or cells: HEK cells
Procedure: as §1, §2, §3, §4, §5

Human NaV1.4 = molecular target: T3, Human NaV1.4 (Homo sapiens, UniProt P35499); test: as above; type: cell-based; settings: HEK 293 cells
T3 construct: expressed in transfected cells
Procedure: as §1, §2, §3, §4, §5

Serotonin 5-HT2B = Serotonin 5-HT2B (Homo sapiens, UniProt P41595); test: Panlabs selection; type: binding
Description: (§6) Supplement KCHL_A_2122309_SM6747.docx, table 1 | column: SSI-5; SSI-3; SSI-4; SSI-1

Adrenergic α2B = molecular target: T4, Adrenergic α2B (Homo sapiens, UniProt P18089); test: Panlabs selection; type: binding
T4 construct: Panlabs
Description: as §6

Adrenergic α1D = molecular target: T5, Adrenergic α1D (Homo sapiens, UniProt P25100); test: Panlabs selection; type: binding
T5 construct: Panlabs
Description: as §6

[1] = molecular target: Transporter, Dopamine DAT (Homo sapiens, UniProt Q01959); test: Panlabs selection; type: binding
Description: as §6

[2] = molecular target: Transporter, Norepinephrine NET (Homo sapiens, UniProt P23975); test: Panlabs selection; type: binding
Description: as §6

Adrenergic α2C = molecular target: T6, Adrenergic α2C (Homo sapiens, UniProt P18825); test: Panlabs selection; type: binding
T6 construct: Panlabs
Description: as §6

Adrenergic α2A = molecular target: T7, Adrenergic α2A (Homo sapiens, UniProt P08913); test: Panlabs selection; type: binding
T7 construct: Panlabs
Description: as §6

Histamine H1 = molecular target: T8, Histamine H1 (Homo sapiens, UniProt P35367); test: Panlabs selection; type: binding
T8 construct: Panlabs
Description: as §6

Melanocortin MC5 = molecular target: T9, Melanocortin MC5 (Homo sapiens, UniProt P33032); test: Panlabs selection; type: binding
T9 construct: Panlabs
Description: as §6

Transporter, Choline = Transporter, Choline (Homo sapiens, UniProt Q9GZV3); test: Panlabs selection; type: binding
Description: as §6

hERG = hERG (Homo sapiens, UniProt Q12809); test: Functional Ion Channel Panel hERG; type: biochemical; settings: read-out: hERG %inh
Description: as §6

[3] = molecular target: (Homo sapiens, UniProt Q12809); test: Global Counterscreen MK499 binding
Description: (§7) Supplement KCHL_A_2122309_SM6747.docx, table 1 | column: SSI-5; SSI-3; SSI-4; SSI-1; SSI-6

Nav1.6 [4] = molecular target: T10, Nav1.6 (Homo sapiens, UniProt Q9UQD0); test: PX Nav1.6 IC50 (supplement); type: cell-based; set-up: expressed in transfected cells; host or cells: HEK cells
Procedure: as §1
as §2, with “The voltage curve was used to determine if the cell was adequately clamped; cells with currents larger than 10nA or with space clamp issues were not used further.” left out
NaV1.7, NaV1.6, NaV1.4: Compound potency was measured in a hyperpolarized-state protocol where the holding potential for each cell was set to V0.5inact – 20 mV. […]

NAChR α3β4 = molecular target: T11, NAChR α3β4 (Homo sapiens, UniProt P30926+P32297); test: Panlabs selection; type: binding
T11 construct: Panlabs

Cav1.2 = Cav1.2 (Homo sapiens, UniProt Q13936); test: Global Counterscreen Cav1.2
Description: as §7

Iks = Iks (Homo sapiens, UniProt P51787); test: Functional Ion Channel Panel Iks; type: biochemical; settings: read-out: Iks %inh
Description: as §6

[5] = Rat plasma protein binding; type: in vitro ADME
Description: as §7

Nav1.6 [6] = molecular target: T10, Nav1.6; test: Nav1.6 binding; set-up: expressed in transfected cells; host or cells: HEK cells; settings: read-out: Nav1.6 bind Ki
Description: as §7

T3 sequence (P35499 whole entry): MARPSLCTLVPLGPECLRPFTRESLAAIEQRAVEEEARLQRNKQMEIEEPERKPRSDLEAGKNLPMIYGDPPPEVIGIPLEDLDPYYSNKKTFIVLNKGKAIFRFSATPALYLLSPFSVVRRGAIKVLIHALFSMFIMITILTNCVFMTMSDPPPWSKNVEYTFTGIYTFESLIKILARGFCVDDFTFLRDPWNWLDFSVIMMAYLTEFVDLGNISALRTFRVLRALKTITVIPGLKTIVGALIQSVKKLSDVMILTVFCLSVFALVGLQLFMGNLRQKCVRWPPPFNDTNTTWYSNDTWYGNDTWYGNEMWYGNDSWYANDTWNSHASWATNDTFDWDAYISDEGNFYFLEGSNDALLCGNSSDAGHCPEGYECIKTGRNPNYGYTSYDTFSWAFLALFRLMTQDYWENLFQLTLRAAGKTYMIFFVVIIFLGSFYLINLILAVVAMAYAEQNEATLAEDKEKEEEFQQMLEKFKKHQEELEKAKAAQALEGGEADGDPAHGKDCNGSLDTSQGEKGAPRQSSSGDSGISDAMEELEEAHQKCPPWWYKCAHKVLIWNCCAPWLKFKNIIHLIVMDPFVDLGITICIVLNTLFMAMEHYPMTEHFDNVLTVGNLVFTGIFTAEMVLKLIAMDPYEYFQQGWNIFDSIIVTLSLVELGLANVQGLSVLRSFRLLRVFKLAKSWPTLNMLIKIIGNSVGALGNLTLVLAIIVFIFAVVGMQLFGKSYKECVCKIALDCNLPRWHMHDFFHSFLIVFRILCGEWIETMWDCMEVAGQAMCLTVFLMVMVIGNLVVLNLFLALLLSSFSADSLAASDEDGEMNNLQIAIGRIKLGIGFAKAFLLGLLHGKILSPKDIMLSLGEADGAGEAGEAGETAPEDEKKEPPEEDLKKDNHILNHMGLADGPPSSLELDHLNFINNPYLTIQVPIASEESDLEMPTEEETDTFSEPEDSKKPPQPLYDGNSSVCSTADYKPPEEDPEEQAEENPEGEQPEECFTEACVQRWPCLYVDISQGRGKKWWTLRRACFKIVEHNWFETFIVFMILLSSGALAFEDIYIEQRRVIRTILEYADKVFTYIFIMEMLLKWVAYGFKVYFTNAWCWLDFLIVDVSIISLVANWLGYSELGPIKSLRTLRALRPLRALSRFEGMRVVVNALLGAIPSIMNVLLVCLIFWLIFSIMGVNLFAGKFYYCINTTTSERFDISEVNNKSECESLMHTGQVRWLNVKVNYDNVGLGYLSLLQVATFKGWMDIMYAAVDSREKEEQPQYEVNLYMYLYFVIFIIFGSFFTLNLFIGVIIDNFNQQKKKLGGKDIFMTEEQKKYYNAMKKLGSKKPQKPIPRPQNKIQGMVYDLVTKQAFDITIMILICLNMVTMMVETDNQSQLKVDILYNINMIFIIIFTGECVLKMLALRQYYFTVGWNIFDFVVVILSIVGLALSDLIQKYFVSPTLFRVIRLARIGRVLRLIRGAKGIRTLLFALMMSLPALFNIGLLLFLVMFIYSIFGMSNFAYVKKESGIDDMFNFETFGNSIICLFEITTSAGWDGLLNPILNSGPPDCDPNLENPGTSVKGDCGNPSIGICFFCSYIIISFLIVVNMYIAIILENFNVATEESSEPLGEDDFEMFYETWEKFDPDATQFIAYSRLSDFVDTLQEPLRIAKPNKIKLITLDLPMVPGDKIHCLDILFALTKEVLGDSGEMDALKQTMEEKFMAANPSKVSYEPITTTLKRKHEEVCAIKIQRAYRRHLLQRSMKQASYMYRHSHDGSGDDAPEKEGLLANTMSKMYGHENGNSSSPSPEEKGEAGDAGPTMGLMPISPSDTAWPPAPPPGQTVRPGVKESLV
T10 sequence (Q9UQD0 whole entry): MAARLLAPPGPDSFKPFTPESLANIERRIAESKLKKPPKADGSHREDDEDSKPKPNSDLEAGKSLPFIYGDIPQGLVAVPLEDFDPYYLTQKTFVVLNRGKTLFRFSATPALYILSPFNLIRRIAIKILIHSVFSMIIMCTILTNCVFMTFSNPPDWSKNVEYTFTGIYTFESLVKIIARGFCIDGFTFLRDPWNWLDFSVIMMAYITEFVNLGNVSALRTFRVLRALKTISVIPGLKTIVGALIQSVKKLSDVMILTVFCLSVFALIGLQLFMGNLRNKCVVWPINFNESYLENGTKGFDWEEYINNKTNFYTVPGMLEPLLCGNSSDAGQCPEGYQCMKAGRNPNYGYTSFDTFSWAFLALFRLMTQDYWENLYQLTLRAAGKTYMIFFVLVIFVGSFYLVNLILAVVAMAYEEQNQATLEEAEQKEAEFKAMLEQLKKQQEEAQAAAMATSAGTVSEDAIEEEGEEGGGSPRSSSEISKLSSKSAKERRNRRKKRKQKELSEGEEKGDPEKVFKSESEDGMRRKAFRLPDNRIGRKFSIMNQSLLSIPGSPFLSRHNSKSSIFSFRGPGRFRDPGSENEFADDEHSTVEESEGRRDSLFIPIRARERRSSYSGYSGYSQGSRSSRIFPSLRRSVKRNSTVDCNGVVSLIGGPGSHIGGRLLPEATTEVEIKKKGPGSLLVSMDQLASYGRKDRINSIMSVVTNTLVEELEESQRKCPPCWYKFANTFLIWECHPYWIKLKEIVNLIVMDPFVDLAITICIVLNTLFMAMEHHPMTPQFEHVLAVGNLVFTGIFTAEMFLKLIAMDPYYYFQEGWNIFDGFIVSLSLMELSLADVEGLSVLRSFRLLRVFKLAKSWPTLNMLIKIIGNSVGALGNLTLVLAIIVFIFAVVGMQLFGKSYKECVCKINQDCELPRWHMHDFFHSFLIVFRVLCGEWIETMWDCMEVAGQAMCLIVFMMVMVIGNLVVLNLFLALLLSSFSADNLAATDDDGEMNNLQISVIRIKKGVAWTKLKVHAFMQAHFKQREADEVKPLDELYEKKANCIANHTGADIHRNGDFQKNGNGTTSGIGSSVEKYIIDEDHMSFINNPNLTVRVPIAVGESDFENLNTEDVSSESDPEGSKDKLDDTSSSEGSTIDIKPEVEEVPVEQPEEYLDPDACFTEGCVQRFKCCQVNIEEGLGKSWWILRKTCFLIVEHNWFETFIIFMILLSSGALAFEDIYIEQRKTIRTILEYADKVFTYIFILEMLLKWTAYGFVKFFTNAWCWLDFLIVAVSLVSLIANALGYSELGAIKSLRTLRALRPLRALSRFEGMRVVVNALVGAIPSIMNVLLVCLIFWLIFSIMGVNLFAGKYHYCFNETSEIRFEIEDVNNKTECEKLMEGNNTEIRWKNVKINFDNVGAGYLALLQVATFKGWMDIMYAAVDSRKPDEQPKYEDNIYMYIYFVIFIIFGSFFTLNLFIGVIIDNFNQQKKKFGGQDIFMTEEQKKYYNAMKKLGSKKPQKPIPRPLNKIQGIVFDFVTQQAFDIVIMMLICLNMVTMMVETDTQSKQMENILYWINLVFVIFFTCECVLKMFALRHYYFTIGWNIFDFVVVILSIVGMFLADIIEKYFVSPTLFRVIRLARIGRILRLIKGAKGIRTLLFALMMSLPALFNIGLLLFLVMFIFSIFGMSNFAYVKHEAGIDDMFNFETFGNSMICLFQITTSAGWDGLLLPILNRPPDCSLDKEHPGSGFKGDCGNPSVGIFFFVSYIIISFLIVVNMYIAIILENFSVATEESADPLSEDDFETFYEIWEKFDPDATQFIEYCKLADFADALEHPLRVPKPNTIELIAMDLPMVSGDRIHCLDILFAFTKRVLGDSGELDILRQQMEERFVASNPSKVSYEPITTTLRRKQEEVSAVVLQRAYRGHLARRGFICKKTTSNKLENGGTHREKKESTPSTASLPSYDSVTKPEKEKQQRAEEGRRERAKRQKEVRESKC
(Homo sapiens, UniProt Q12809), sequence (Q12809 whole entry): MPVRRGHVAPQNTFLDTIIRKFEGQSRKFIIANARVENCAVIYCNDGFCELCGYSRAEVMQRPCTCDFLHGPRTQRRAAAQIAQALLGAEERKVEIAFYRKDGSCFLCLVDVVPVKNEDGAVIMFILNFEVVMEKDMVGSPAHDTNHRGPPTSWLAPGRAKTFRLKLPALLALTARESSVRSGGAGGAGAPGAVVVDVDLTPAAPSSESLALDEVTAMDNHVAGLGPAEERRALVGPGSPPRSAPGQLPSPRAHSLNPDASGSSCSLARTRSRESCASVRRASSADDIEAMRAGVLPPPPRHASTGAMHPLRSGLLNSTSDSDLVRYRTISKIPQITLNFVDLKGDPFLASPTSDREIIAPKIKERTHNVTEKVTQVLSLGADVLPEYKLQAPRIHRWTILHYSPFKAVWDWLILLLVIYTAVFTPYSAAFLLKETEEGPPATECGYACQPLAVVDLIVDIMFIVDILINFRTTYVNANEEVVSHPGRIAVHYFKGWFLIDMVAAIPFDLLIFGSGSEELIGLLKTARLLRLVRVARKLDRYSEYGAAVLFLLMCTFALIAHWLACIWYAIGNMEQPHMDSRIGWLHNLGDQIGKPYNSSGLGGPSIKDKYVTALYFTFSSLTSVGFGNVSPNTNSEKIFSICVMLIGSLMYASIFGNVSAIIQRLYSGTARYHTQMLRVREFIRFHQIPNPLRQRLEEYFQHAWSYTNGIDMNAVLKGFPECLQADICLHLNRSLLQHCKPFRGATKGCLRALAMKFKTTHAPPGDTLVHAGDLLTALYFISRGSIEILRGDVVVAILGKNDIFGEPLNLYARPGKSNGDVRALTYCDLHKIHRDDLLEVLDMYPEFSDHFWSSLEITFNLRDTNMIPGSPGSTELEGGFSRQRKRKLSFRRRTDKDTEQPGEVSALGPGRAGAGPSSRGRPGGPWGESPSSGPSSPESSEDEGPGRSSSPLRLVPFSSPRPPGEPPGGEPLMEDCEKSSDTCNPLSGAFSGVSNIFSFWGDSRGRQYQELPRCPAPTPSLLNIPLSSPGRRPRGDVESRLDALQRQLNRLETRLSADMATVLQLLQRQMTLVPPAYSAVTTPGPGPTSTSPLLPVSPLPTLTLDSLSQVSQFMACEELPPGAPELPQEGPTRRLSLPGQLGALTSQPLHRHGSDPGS

| Compound | IC50 (Human NaV1.7) [µM] | IC50 (Rat NaV1.6) [µM] | IC50 (Human NaV1.4) [µM] | Ki [3] [µM] | IC50 (Nav1.6 [4]) [µM] | IC50 (Cav1.2) [µM] | fraction unbound [5] | Ki (Nav1.6 [6]) [nM] | other results |
| --- | --- | --- | --- | --- | --- | --- | --- | --- | --- |
| O=S(=O)(Nc1nccs1)c1cc(Cl)c(NCCCCNC[C@H]2CCCN2)cc1F [SSCI-1] | 0.065 | 19 | > 30 | > 54 | 18.2 | > 30 | 0.067 | 47.1 | Ki (Nicotinic Acetylcholine): > 10 µM; Ki (Serotonin 5-HT2B): > 10 µM; Ki (Adrenergic α2B): > 10 µM; Ki (Adrenergic α1D): > 10 µM; Ki [1]: 0.98 µM; Ki [2]: 3.93 µM; Ki (Adrenergic α2C): > 10 µM; Ki (Adrenergic α2A): > 10 µM; Ki (Histamine H1): > 10 µM; Ki (Melanocortin MC5): > 10 µM; Ki (Transporter, Choline): 3.19 µM; inhibition at 30 µM (hERG): 22%; Ki (NAChR α3β4): > 10 µM; inhibition at 30 µM (Iks): -1% |
| C[C@H](c1cccc2c1CNCC2)n1c(=O)oc2cc(S(=O)(=O)Nc3ncns3)ccc21 [SSCI-3] | 1 | 8.1 | > 30 |  |  |  |  |  |  |
| N#Cc1cc(S(=O)(=O)Nc2cscn2)ccc1Oc1ccc(Cl)cc1-c1ccnn1C1CNC1 [SSCI-5] | 2.1 | 7.4 | > 30 |  |  |  |  |  |  |
| COc1ccc(CCC(c2cccc3c2CNCC3)n2c(=O)oc3cc(S(=O)(=O)Nc4ncns4)c(F)cc32)cc1 (stereo not drawn) [SSCI-6] | 0.29 | > 0.041 |  | 17 | 0.018 to 0.036 | 24 | 0.018 | 0.08 | inhibition at 0.041 µM (Rat NaV1.6; at 41 nM): 45% |
